Source: patent US7605272B2, “IGF-1R inhibitor” (Kyowa Hakko Kirin Co., Ltd., priority 2005, dated 2009)
Where a name gives a salt, the structure may show the parent alone. Read-outs that look alike come from different tables or passages of the source.

Legend:
NCI-H929 = assay: Cytostatic activity on human multiple myeloma cell line NCI-H929 (WST-1); assay type: cell-based; conditions: for inhibition at 10 µM / inhibition at 1 µM: Homo sapiens, NCI-H929, 72 h; for inhibition at 10 µM: read-out: cytostatic rate (%) H929 (10 μmol/L); for inhibition at 1 µM: read-out: cytostatic rate (%) H929 (1 μmol/L)
Procedure, shortened: (§1)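 Cells pre-cultured 24 h at 37 °C, 5% CO2, then exposed 72 h to compound at final 1 or 10 μmol/L (0.1% DMSO). WST-1 added for 2 h, absorbance at 450 nm (ref 690 nm). Cytostatic rate = 100 minus relative growth, with DMSO control as 100% and blank as 0%.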

KMS-11 = assay: Cytostatic activity on human multiple myeloma cell line KMS-11 (WST-1); assay type: cell-based; conditions: for inhibition at 10 µM / inhibition at 1 µM: Homo sapiens, KMS-11, 72 h; for inhibition at 10 µM: read-out: cytostatic rate (%) KMS-11 (10 μmol/L); for inhibition at 1 µM: read-out: cytostatic rate (%) KMS-11 (1 μmol/L)
Procedure, shortened: as §1

AsPC-1 = assay: Cytostatic activity on human pancreatic cancer cell line AsPC-1 (WST-1); assay type: cell-based; conditions: for inhibition at 10 µM: Homo sapiens, ASPC1, 72 h
Description: (§2) The cytostatic rates of the test compound on the human pancreatic cancer cell line AsPC-1 and the human colon cancer cell line Colo205 were determined in the following manner.
(§3) For culturing AsPC-1, RPMI 1640 medium containing 20% fetal bovine serum, 1 mmol/L sodium pyruvate, 10 mmol/L HEPES, 4.5 g/L glucose and penicillin/streptomycin (1:1). The Colo205 cell was cultured using RPMI 1640 medium containing 10% fetal bovine serum, 1 mmol/L sodium pyruvate, 10 mmol/L HEPES, 4.5 g/L glucose and penicillin/streptomycin (1:1) was used. Each 80 μL of the AsPC-1 cell having a concentration of 5×10^4 cells/mL (or the Colo205 having a concentration of 5×10^4 cells/mL) was inoculated to wells of a TC MICROWELL 96F plate (Nalge Nunc International, Catalog No. 167008) and was cultured in a 5% carbon dioxide gas incubator at 37° C. for 24 hours. Each 20 μL of a solution of the test compound in DMSO which was prepared to make the final concentration to 1 μmol/L or 10 μmol/L, was added to each well. Each 20 μL of DMSO was added to the control well and the blank well to a final concentration of 0.1%. After adding the test compound, the cell was incubated in a 5% carbon dioxide gas incubator at 37° C. for 72 hours except for the blank well. After adding 20 μL of WST-1 reagent which was diluted to 50% by RPMI medium to each well, the cells were further incubated at 37° C. for 2 hours. Then, the absorbances at 450 nm (reference wavelength: 690 nm) were determined with a microplate spectrophotometer SPECTRA max 340PC. The cytostatic rate (%) was then determined in the similar manner to the above multiple myeloma cell lines.

Colo205 = assay: Cytostatic activity on human colon cancer cell line Colo205 (WST-1); assay type: cell-based; conditions: for inhibition at 10 µM: Homo sapiens, COLO 205, 72 h
Description: as §2, §3

IGF-1R = target: T1, IGF-1R (Homo sapiens, UniProt P08069); assay: IGF-1R inhibitory activity (kinase reaction, time-resolved fluoroimmunoassay); assay type: biochemical; conditions: test compound 10 μmol/L
T1 construct: purchased Upstate Co. 14-465
Procedure, shortened: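 Compounds were tested at a single 10 μmol/L concentration. Each was incubated with recombinant IGF-1R (200 μg/L), 10 mmol/L ATP, MgCl2/MnCl2 and Na3VO4 (pH 7.5) on immobilized poly(Glu-Tyr) peptide for 30 min at 24° C. Eu-anti-phosphotyrosine time-resolved fluorescence (340/615 nm) gave relative activity against no-compound and no-enzyme wells, reported as % inhibition.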

[1] = 10 μmol/L, read-out: cytostatic rate (%) AsPC-1 (10 μmol/L)
[2] = 10 μmol/L, read-out: cytostatic rate (%) Colo205 (10 μmol/L)
[3] = IGF-1R active recombinant enzyme

T1 sequence (P08069 959-1367 limits assumed): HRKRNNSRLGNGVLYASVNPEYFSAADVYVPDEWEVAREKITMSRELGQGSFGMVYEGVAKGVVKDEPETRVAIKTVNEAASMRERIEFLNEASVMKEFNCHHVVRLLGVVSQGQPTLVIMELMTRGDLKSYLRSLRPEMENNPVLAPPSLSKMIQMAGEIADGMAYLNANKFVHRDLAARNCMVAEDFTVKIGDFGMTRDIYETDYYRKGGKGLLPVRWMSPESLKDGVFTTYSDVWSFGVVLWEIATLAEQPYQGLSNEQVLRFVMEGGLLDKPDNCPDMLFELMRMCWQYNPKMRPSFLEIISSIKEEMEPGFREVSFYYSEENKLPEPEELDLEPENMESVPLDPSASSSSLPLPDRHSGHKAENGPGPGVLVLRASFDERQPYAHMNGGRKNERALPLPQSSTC

| SMILES | inhibition at 10 µM (NCI-H929; 10 μmol/L, 72 hours) [%] | inhibition at 10 µM (KMS-11; 10 μmol/L, 72 hours) [%] | inhibition at 10 µM (AsPC-1; [1]) [%] | inhibition at 10 µM (Colo205; [2]) [%] | inhibition at 10 µM (IGF-1R; [3]) [%] | also measured |
| --- | --- | --- | --- | --- | --- | --- |
| Nc1ccc2c(c1)C(=O)N(c1cc3c(cc1/C=C/c1n[nH]c4ccccc14)OCO3)C2=O [Compound 153, (E)-5-amino-2-{6-[2-(1H-indazol-3-yl)vinyl]benzo[1,3]dioxol-5-yl}isoindole-1,3-dione] | 122 | 129 | 77 | 114 | 99.8 |  |
| O=C(Nc1ccccc1/C=C/c1n[nH]c2ccccc12)c1cc2ccccc2s1 [Compound 46, (E)-N-{2-[2-(1H-indazol-3-yl)vinyl]phenyl}benzo[b]thiophene-2-carboxamide] | 118 | 115 | 120 | 112 | 97.8 |  |
| Cc1ccsc1C(=O)Nc1cc(C(=O)N2CCOCC2)ccc1/C=C/c1n[nH]c2ccccc12.Cl [Compound 115, (E)-N-{2-[2-(1H-indazol-3-yl)vinyl]-5-(morpholin-4-ylcarbonyl)phenyl}-3-methylthiophene-2-carboxamide hydrochloride] |  |  |  |  |  | cytostatic rate (%) H929 (10 μmol/L) (NCI-H929; 10 μmol/L, 72 hours): 120.0%; cytostatic rate (%) KMS-11 (10 μmol/L) (KMS-11; 10 μmol/L, 72 hours): 115.5%; cytostatic rate (%) AsPC-1 (10 μmol/L) (AsPC-1; 10 μmol/L, 72 hours): 108.7%; cytostatic rate (%) Colo205 (10 μmol/L) (Colo205; 10 μmol/L, 72 hours): 121.6%; inhibitory activity (%) at 10 μmol/L (IGF-1R): 100.1% |
| Cn1cccc1C(=O)Nc1ccccc1/C=C/c1n[nH]c2ccccc12 [Compound 29, (E)-N-{2-[2-(1H-indazol-3-yl)vinyl]phenyl}-1-methyl-1H-pyrrole-2-carboxamide] | 117 | 112 | 66.1 | 114 | 97.9 |  |
| Nc1cccc2c1C(=O)N(c1ccccc1/C=C/c1n[nH]c3ccccc13)C2=O [Compound 194, (E)-4-amino-2-{2-[2-(1H-indazol-3-yl)vinyl]phenyl}isoindole-1,3-dione] | 119 | 143 | 75.3 | 97.9 | 102 |  |
| Cc1ccsc1C(=O)Nc1cc(C(=O)N2CCN(S(C)(=O)=O)CC2)ccc1/C=C/c1n[nH]c2ccccc12 [Compound 222, (E)-N-{2-[2-(1H-indazol-3-yl)vinyl]-5-(4-methanesulfonylpiperazin-1-ylcarbonyl)phenyl}-3-methylthiophene-2-carboxamide hydrochloride] |  |  | 114 | 123 | 98.7 | inhibition at 1 µM (NCI-H929; 1 μmol/L, 72 hours): 118%; inhibition at 1 µM (KMS-11; 1 μmol/L, 72 hours): 108% |
| Cc1ccsc1C(=O)Nc1cc(CN2CCN(CCOCCO)CC2)ccc1/C=C/c1n[nH]c2ccccc12 [Compound 318, (E)-N-{5-{4-[2-(2-hydroxyethoxy)ethyl]piperazin-1-ylmethyl}-2-[2-(1H-indazol-3-yl)vinyl]-phenyl}-3-methylthiophene-2-carboxamide] |  |  |  |  | 94.7 | inhibition at 1 µM (NCI-H929; NCI-H929 cells, test compound 1 μmol/L, WST-1): 122%; inhibition at 1 µM (KMS-11; KMS-11 cells, test compound 1 μmol/L, WST-1): 102%; inhibition at 10 µM (AsPC-1; AsPC-1 cells, test compound 10 μmol/L, WST-1, read-out: cytostatic rate (%) AsPC-1 (10 μmol/L)): 103%; inhibition at 10 µM (Colo205; Colo205 cells, test compound 10 μmol/L, WST-1, read-out: cytostatic rate (%) Colo205 (10 μmol/L)): 120% |
| Cc1ccsc1C(=O)Nc1cc(CO)ccc1/C=C/c1n[nH]c2ccccc12 [Compound 108, (E)-N-{5-hydroxymethyl-2-[2-(1H-indazol-3-yl)vinyl]phenyl}-3-methylthiophene-2-carboxamide] | 123 | 110 | 87.9 | 121 |  | inhibition at 10 µM (IGF-1R): 95% |
| Cc1ccsc1C(=O)Nc1cc(CN2CC[C@@H](N)C2)ccc1/C=C/c1n[nH]c2ccccc12 [Compound 233, (R)-(E)-N-{5-(3-aminopyrrolidin-1-ylmethyl)-2-[2-(1H-indazol-3-yl)vinyl]phenyl}-3-methylthiophene-2-carboxamide] |  |  | 89.1 | 123 | 106 | inhibition at 1 µM (NCI-H929; 1 μmol/L, 72 hours): 118%; inhibition at 1 µM (KMS-11; 1 μmol/L, 72 hours): 102% |
| Cc1ccsc1C(=O)Nc1cc(CN(CCO)CCN2CCOCC2)ccc1/C=C/c1n[nH]c2ccccc12 [Compound 253, (E)-N-{5-[N-(2-hydroxyethyl)-2-(morpholin-4-yl)ethylaminomethyl]-2-[2-(1H-indazol-3-yl)vinyl]phenyl}-3-methylthiophene-2-carboxamide] |  |  | 100 | 122 | 98.7 | inhibition at 1 µM (NCI-H929; 1 μmol/L, 72 hours): 119%; inhibition at 1 µM (KMS-11; 1 μmol/L, 72 hours): 109% |
| Cc1ccsc1C(=O)Nc1cc(N2CCOCC2)ccc1/C=C/c1n[nH]c2ccccc12 [Compound 247, (E)-N-{2-[2-(1H-indazol-3-yl)vinyl]-5-morpholin-4-ylphenyl}-3-methylthiophene-2-carboxamide monohydrochloride] |  |  | 117 | 123 | 102 | inhibition at 1 µM (NCI-H929; 1 μmol/L, 72 hours): 127%; inhibition at 1 µM (KMS-11; 1 μmol/L, 72 hours): 133% |
| Cc1ccsc1C(=O)Nc1cc(C(=O)N2CCOCC2)ccc1/C=C/c1n[nH]c2ccccc12 [Compound 100, (E)-N-{2-[2-(1H-indazol-3-yl)vinyl]-5-(morpholin-4-ylcarbonyl)phenyl}-3-methylthiophene-2-carboxamide] | 122 | 115 | 108 | 121 |  | inhibition at 10 µM (IGF-1R): 98.6% |
| Cc1ccsc1C(=O)Nc1ccccc1/C=C/c1n[nH]c2ccccc12 [Compound 41, (E)-N-{2-[2-(1H-indazol-3-yl)vinyl]phenyl}-3-methylthiophene-2-carboxamide] | 121 | 109 | 85.5 | 115 | 98.6 |  |
| Cc1ccsc1C(=O)Nc1cc(CNCCN2CCOCC2)ccc1/C=C/c1n[nH]c2ccccc12 [Compound 245, (E)-N-{2-[2-(1H-indazol-3-yl)vinyl]-5-[2-(morpholin-4-yl)ethylaminomethyl]phenyl}-3-methylthiophene-2-carboxamide] |  |  | 102 | 121 | 99.9 | inhibition at 1 µM (NCI-H929; 1 μmol/L, 72 hours): 126%; inhibition at 1 µM (KMS-11; 1 μmol/L, 72 hours): 118% |
| Nc1cccc2c1C(=O)N(c1cc3c(cc1/C=C/c1n[nH]c4ccccc14)OCO3)C2=O [Compound 152, (E)-4-amino-2-{6-[2-(1H-indazol-3-yl)vinyl]benzo[1,3]dioxol-5-yl}isoindole-1,3-dione] | 122 | 116 | 72.1 | 86.7 | 99.5 |  |
| COc1cccc(/C=C/c2n[nH]c3ccccc23)c1NC(=O)c1cccn1C [Compound 109, (E)-N-{2-[2-(1H-indazol-3-yl)vinyl]-6-methoxyphenyl}-1-methyl-1H-pyrrole-2-carboxamide] | 116 | 117 | 114 | 123 |  | inhibition at 10 µM (IGF-1R): 103% |
| O=C(Nc1ccccc1/C=C/c1n[nH]c2ccccc12)c1ccccc1 [Compound 85, (E)-N-{2-[2-(1H-indazol-3-yl)vinyl]phenyl}benzamide] | 134 | 124 | 125 | 116 |  | inhibition at 10 µM (IGF-1R): 99.5% |
